According to US20260000076A1, “ANTIMICROBIAL COMBINATIONS” (Clariant International Ltd, priority 2022, published 2026):

Experiments:
Type in all cases: cell-based
[1] = tested on: Enterobacter aerogenes (B) NCIMB 10102; experiment: Minimum inhibitory concentration (MIC), agar dilution; conditions: Klebsiella aerogenes, NCIMB10102; Caso-Agar, pH 7 (+/−0.2)
Experimental: (§1) The antimicrobial properties of Velsan Flex, CHA and a combination of both against bacteria, yeast and mold were investigated: For testing the inhibition of bacteria, Velsan Flex, CHA or a combination of both was diluted in 1,2-propanediol and added in different concentrations to liquid Caso-Agar at 50° C. and was buffered to pH 7 (+/−0.2). For testing the inhibition of yeast and mold, Velsan Flex, CHA or a combination of both was diluted in 1,2-propanediol and added in different concentrations to liquid Sabouraud-4% Dextrose-Agar at 50° C. and was buffered to pH 5.6 (+/−0.2). Each of the solutions was poured into a petri-dish and inoculated with the same amount of bacteria, yeast or mold respectively. The minimum inhibitory concentration (MIC) is the lowest concentration of the respective composition that inhibits the growth of the respective microorganism where the next lowest dilution fails to inhibit the growth of said microorganism. The experiments were carried out in scientifically fair conditions so that a proper comparison could be made and conclusions drawn.

[2] = tested on: Candida albicans (Y) DSM 1386; experiment: as above; conditions: DSM1386, Sabouraud-4% Dextrose-Agar, pH 5.6 (+/−0.2)
Experimental: as §1

[3] = tested on: Escherichia coli (B) DSM 682; experiment: as above; conditions: DSM682, Caso-Agar, pH 7 (+/−0.2)
Experimental: as §1

[4] = tested on: Aspergillus brasiliensis (M) DSM 1988; experiment: as above; conditions: DSM1988, Sabouraud-4% Dextrose-Agar, pH 5.6 (+/−0.2)
Experimental: as §1

[5] = tested on: Aspergillus terreus (M) IMI 45543; experiment: as above; conditions: Sabouraud-4% Dextrose-Agar, pH 5.6 (+/−0.2)
Experimental: as §1

[6] = tested on: Klebsiella pneumoniae (B) DSM 786; experiment: as above; conditions: DSM786, Caso-Agar, pH 7 (+/−0.2)
Experimental: as §1

[7] = tested on: Serratia marcescens (B) BAM 491; experiment: as above; conditions: Caso-Agar, pH 7 (+/−0.2)
Experimental: as §1

[8] = tested on: Pseudomonas aeruginosa (B) DSM 1128; experiment: as above; conditions: DSM1128, Caso-Agar, pH 7 (+/−0.2)
Experimental: as §1

[9] = tested on: Burkholderia cepacia (B) DSM 7288; experiment: as above; conditions: DSM7288, Caso-Agar, pH 7 (+/−0.2)
Experimental: as §1

[10] = tested on: Candida parapsilosis (Y) DSM 5784; experiment: as above; conditions: Lodderomyces parapsilosis, DSM5784; Sabouraud-4% Dextrose-Agar, pH 5.6 (+/−0.2)
Experimental: as §1

[11] = tested on: Staphylococcus aureus (B) DSM 799; experiment: as above; conditions: DSM799, Caso-Agar, pH 7 (+/−0.2)
Experimental: as §1

[12] = tested on: Pseudomonas aeruginosa, Staphylococcus aureus, Escherichia coli, Candida albicans and Aspergillus brasiliensis; experiment: Challenge test, overall result over all test germs; set-up: key: An A-criteria is related to an excellent protection of a formulation; B-criteria is needed to show sufficient protection but additional risk eliminating measures related to packaging and raw material quality need to be applied; With an F-criteria for any of the organism tested the whole challenge test is failed and the preservation/protection of the formulation is not sufficient; conditions: for Challenge test Overall result: Example 2B, CHA 0.1%, Velsan SC 0.9%, Velsan CGE 0.9%
Source text: (§2) Following examples show challenge test results that were done according to EUROPEAN PHARMACOPOEIA 10TH EDITION. Chapter 5.1.3. As representative microorganisms the following test germs were used: Pseudomonas aeruginosa (gram-negative organism, short “P.a.”), Staphylococcus aureus (gram-positive organism, short “S.a.”), Escherichia coli (gram negative organism, short “E.c.”), Candida albicans (yeast, short “C.a.”) and Aspergillus brasiliensis (mold, short “A.b.”).
(§3) The A criteria express the recommended efficacy to be achieved. In justified cases where the A criteria cannot be attained, for example for reasons of an increased risk of adverse reactions, the B criteria must be satisfied. An A-criteria is related to an excellent protection of a formulation, B-criteria is needed to show sufficient protection but additional risk eliminating measures related to packaging and raw material quality need to be applied. With an F-criteria for any of the organism tested the whole challenge test is failed and the preservation/protection of the formulation is not sufficient.
(§4) As a reference an unpreserved sample of the respective formulation was tested as well.
(§5) As a test system a difficult to preserve formulation was used: […]
(§6) As a Test System the Following Formulation was Used: […]

Candida albicans = experiment: Challenge test (European Pharmacopoeia 10th Edition, Chapter 5.1.3) in leave-on O/W-cream gel; set-up: key: An A-criteria is related to an excellent protection of a formulation; B-criteria is needed to show sufficient protection but additional risk eliminating measures related to packaging and raw material quality need to be applied; With an F-criteria for any of the organism tested the whole challenge test is failed and the preservation/protection of the formulation is not sufficient; conditions: for Challenge test result C.a.: Example 2A, Velsan Flex 1.35%, CHA 0.15%; for Challenge test result Candida albicans: Example 2B, CHA 0.1%, Velsan SC 0.9%, Velsan CGE 0.9%
Source text: as §2, §3, §4, §5, §6

Escherichia coli = experiment: as above; set-up: key: An A-criteria is related to an excellent protection of a formulation; B-criteria is needed to show sufficient protection but additional risk eliminating measures related to packaging and raw material quality need to be applied; With an F-criteria for any of the organism tested the whole challenge test is failed and the preservation/protection of the formulation is not sufficient; conditions: for Challenge test result E.c.: Example 2A, Velsan Flex 1.35%, CHA 0.15%; for Challenge test result Escherichia coli: Example 2B, CHA 0.1%, Velsan SC 0.9%, Velsan CGE 0.9%
Source text: as §2, §3, §4, §5, §6

Pseudomonas aeruginosa = experiment: as above; set-up: key: An A-criteria is related to an excellent protection of a formulation; B-criteria is needed to show sufficient protection but additional risk eliminating measures related to packaging and raw material quality need to be applied; With an F-criteria for any of the organism tested the whole challenge test is failed and the preservation/protection of the formulation is not sufficient; conditions: for Challenge test result P.a.: Example 2A, Velsan Flex 1.35%, CHA 0.15%; for Challenge test result Pseudomonas aeruginosa: Example 2B, CHA 0.1%, Velsan SC 0.9%, Velsan CGE 0.9%
Source text: as §2, §3, §4, §5, §6

Staphylococcus aureus = experiment: as above; set-up: key: An A-criteria is related to an excellent protection of a formulation; B-criteria is needed to show sufficient protection but additional risk eliminating measures related to packaging and raw material quality need to be applied; With an F-criteria for any of the organism tested the whole challenge test is failed and the preservation/protection of the formulation is not sufficient; conditions: for Challenge test result S.a.: Example 2A, Velsan Flex 1.35%, CHA 0.15%; for Challenge test result Staphylococcus aureus: Example 2B, CHA 0.1%, Velsan SC 0.9%, Velsan CGE 0.9%
Source text: as §2, §3, §4, §5, §6

Aspergillus brasiliensis = experiment: as above; set-up: key: An A-criteria is related to an excellent protection of a formulation; B-criteria is needed to show sufficient protection but additional risk eliminating measures related to packaging and raw material quality need to be applied; With an F-criteria for any of the organism tested the whole challenge test is failed and the preservation/protection of the formulation is not sufficient; conditions: for Challenge test result A.b.: Example 2A, Velsan Flex 1.35%, CHA 0.15%; for Challenge test result Aspergillus brasiliensis: Example 2B, CHA 0.1%, Velsan SC 0.9%, Velsan CGE 0.9%
Source text: as §2, §3, §4, §5, §6

Compound	Challenge test Overall result ([12]; pH 5)	Challenge test Overall result ([12]; pH 7)	Challenge test result Candida albicans (Candida albicans; pH 5)	Challenge test result Candida albicans (Candida albicans; pH 7)	Challenge test result Escherichia coli (Escherichia coli; pH 5)	Challenge test result Escherichia coli (Escherichia coli; pH 7)	Challenge test result Pseudomonas aeruginosa (Pseudomonas aeruginosa; pH 5)	Challenge test result Pseudomonas aeruginosa (Pseudomonas aeruginosa; pH 7)	Challenge test result Staphylococcus aureus (Staphylococcus aureus; pH 5)	Challenge test result Staphylococcus aureus (Staphylococcus aureus; pH 7)	Challenge test result Aspergillus brasiliensis (Aspergillus brasiliensis; pH 5)	Challenge test result Aspergillus brasiliensis (Aspergillus brasiliensis; pH 7)	other results
CCCCCCCC(=O)NO [10% CHA solution, Caprylhydroxamic acid]													MIC [1]: 6000 µg/mL; MIC [2]: 2000 µg/mL; MIC [3]: 5000 µg/mL; MIC [4]: 3000 µg/mL; MIC [5]: 2000 µg/mL; MIC [6]: 3000 µg/mL; MIC [7]: 4000 µg/mL; MIC [8]: 8000 µg/mL; MIC [9]: 3000 µg/mL; MIC [10]: 2000 µg/mL; MIC [11]: 8000 µg/mL
CCCCCCCC(=O)NO [CHA, Caprylhydroxamic acid]	B	F	A	A	B	B	A	A	A	F	B	A	Challenge test, criteria obtained over all test organisms ([12]; Example 2A, pH 5, Velsan Flex 1.35%, CHA 0.15%): B; Challenge test result C.a. (Candida albicans; pH 5): A; Challenge test result C.a. (Candida albicans; pH 7): A; Challenge test result E.c. (Escherichia coli; pH 5): B; Challenge test result E.c. (Escherichia coli; pH 7): B; Challenge test result P.a. (Pseudomonas aeruginosa; pH 5): A; Challenge test result P.a. (Pseudomonas aeruginosa; pH 7): A; Challenge test result S.a. (Staphylococcus aureus; pH 5): A; Challenge test result S.a. (Staphylococcus aureus; pH 7): B; Challenge test result A.b. (Aspergillus brasiliensis; pH 5): A; Challenge test result A.b. (Aspergillus brasiliensis; pH 7): A
Sorbitan caprylate [Velsan SC]	F	F	B	B	A	B	F	F	A	A	F	F	
